From patent US20250213572A1, “TYK2 INHIBITORS AND USES THEREOF” (Takeda Pharmaceutical Company Limited, priority 2022, published 2025)
“Also recorded” adds a separate entry of the source.

How the values were obtained:
[1] = test system: TYK2-dependent interferon gamma (IFNγ); assay: Ex-vivo whole blood IL-12/IL-18 stimulated IFNγ production (pharmacodynamics); assay type: in vivo, human; conditions: after oral dosing
Protocol: Pharmacodynamic Results: The PD effect of treatment within this study was assessed using an ex-vivo immune-assay measuring the amount of TYK2-dependent interferon gamma (IFNγ) produced by whole blood samples that were stimulated with the cytokines IL-12 and IL-18 at baseline (predose) and following treatment.

[2] = Caco-2 (A-B Papp/Efflux Ratio); assay type: in vitro ADME; conditions: human
CYP450 2C9 = CYP450 2C9 (Homo sapiens, UniProt P11712); assay: CYP450 inhibition, 2C9; assay type: in vitro ADME
[3] = Pharmacokinetics in healthy volunteers (PO; QD), Study 101 and Study 104 (FIG. 11, FIG. 12); assay type: in vivo, human

CYP450 2C9, sequence (P11712 whole entry): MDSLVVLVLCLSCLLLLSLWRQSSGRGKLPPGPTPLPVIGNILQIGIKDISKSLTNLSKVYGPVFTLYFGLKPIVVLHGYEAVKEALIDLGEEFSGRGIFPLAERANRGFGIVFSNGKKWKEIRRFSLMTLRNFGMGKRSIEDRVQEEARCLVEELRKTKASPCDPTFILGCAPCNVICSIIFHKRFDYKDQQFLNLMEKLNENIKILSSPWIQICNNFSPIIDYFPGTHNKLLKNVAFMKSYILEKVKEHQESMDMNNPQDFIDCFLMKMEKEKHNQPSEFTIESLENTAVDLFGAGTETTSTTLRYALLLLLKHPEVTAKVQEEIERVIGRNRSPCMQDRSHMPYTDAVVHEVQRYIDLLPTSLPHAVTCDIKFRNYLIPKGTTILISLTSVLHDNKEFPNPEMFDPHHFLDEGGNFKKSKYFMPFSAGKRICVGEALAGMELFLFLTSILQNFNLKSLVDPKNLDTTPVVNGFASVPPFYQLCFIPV

## CNc1cc(Nc2cccn(-c3ccccn3)c2=O)nc2c(C(=O)N[C@@H]3CC[C@H]3OC)cnn12 [Compound 1, N-((1R,2R)-2-methoxycyclobutyl)-7-(methylamino)-5-((2-oxo-2H-[1,2′-bipyridin]-3-yl)amino)pyrazolo[1,5-a]pyrimidine-3-carboxamide]
[1]
  IFNγ production in cytokine-stimulated ex vivo whole blood: greater reduction in IFNγ; also recorded: dose-dependent inhibition of IFNy; also recorded: rapid inhibition of interferon gamma (IFNγ) production
[2]
  Papp A→B: 15 ×10⁻⁶ cm/s
CYP450 2C9
  IC50: > 30 µM
[3]; 5-75 mg
  dose proportionality of Cmax and AUC0-24: increased in an approximately dose-proportional manner
[3]; human, plasma, po, across doses, read-out: Oral T1/2
  half-life: 16.5 to 30.7 h
[3]; human, plasma, day 1 and day 14, PO QD, read-out: median Tmax of peak mean plasma concentrations
  Tmax: 4 to 6 h
